{"source": "patent US20250090729A1", "about": "“Methods and Products to Detect, Minimize and Treat TRAP-Related Tissue Reactions and Tissue Injury Associated With Medical Devices” (priority 2022, published 2025)", "key": {"human neutrophils": {"test_system": "human neutrophils", "assay": "In vitro TRAP formation by human blood neutrophils (PMNs) cultured with test agents", "assay_type": "cell-based", "conditions": "for TRAP formation in human neutrophils: FIG. 12, human blood neutrophils cultured with agent; for TRAP formation at higher dilution than 1/5: PMNs; for TRAP formation at 1/5 dilution: PMNs of 3 donors, 4 hr timeline, vs negative control", "protocol": "From left to right and top to bottom (A)-(F), media only (A) and PMA (B), a known inducer of TRAPS in human neutrophils, present positive control.\nPMA=phorbol myristate acetate; Insulin is Humalog (Lilly); LPS is a bacterial endotoxin (known inducers of TRAPs.\nGreen color (light color in grayscale) indicates the existence of TRAPs. In each slide set, the upper left slide is the control with media only. The upper right slide is Humalog insulin in media at 1/5 dilution (0.6 mg m-cresol/ml, with 0.6 mg/ml of insulin), PMA concentrations are in ng/ml and the lower right slide is m-cresol at 1/5 dilution (0.6 mg/ml of m-cresol). In this study, the media was RPMI 1640 (phenol free).\nIn these examples, human blood neutrophils were placed in a culture dish+/−sensors in vitro. […] Brightfield refers to the use of non-fluorescent white light (78a). […] In FIG. 79, neutrophils were added to tissue culture dishes that contained a sensor (commercial type #1) to see if the sensor could directly trigger neutrophil death and TRAP release which we detect with fluorescent dyes like sytox green. FIG. 79a-c had no neutrophils added to the sensors. In FIG. 79d-f neutrophils were added. The sytox green binds to DNA, and fluoresces green in color photo, or white in black and white photos. […] “Merged” refers to photos in which the non-fluorescent (brightfield) and fluorescent photos are merged into a single photo FIG. 79c."}, "porcine skin": {"test_system": "porcine skin", "assay": "In vivo TRAP formation at infusion/injection sites in swine skin (H&E histology)", "conditions": "infused continuously over a 5- to 7-day period", "from_the_text": "The presence of the purple web appearance is indicated by the black arrows.\nWhite area in the center of the image is the previous location of the injection port."}}, "note": "“Also recorded” adds a separate entry of the source.", "data": [{"molecule": "CCCCCCCCCCCCCC(=O)O[C@@H]1[C@@H](C)[C@@]2(O)[C@@H](C=C(CO)C[C@]3(O)C(=O)C(C)=C[C@@H]23)[C@@H]2C(C)(C)[C@]12OC(C)=O", "note": "[PMA, phorbol myristate acetate]", "values": [{"measurement": "TRAPs at 30 minutes", "setting": "human neutrophils; FIG. 60B, human PMNs, RPMI 1640", "value": "presence of TRAPs"}, {"measurement": "TRAPs at 60 minutes", "setting": "human neutrophils; FIG. 60C, Humalog insulin 1/5 dilution", "value": "significant TRAPs"}, {"measurement": "TRAP formation in PMNs of 3 donors", "setting": "human neutrophils; dilution not specified, positive controls and insulin fibrils lacking PP", "value": "trigger TRAP formation; also recorded: triggered TRAPs"}, {"measurement": "time after exposure until TRAPs are triggered", "setting": "human neutrophils; human PMNs, commercial insulin and m-cresol at 1/5 dilution", "value": "≤ 60", "unit": "min"}]}, {"molecule": "Oc1ccccc1", "note": "[phenol]", "values": [{"measurement": "TRAP formation in human neutrophils", "setting": "human neutrophils", "value": "trigger TRAP formation"}, {"measurement": "TRAP formation at higher dilution than 1/5", "setting": "human neutrophils", "value": "weak to no TRAP formation"}, {"measurement": "TRAP formation at 1/5 dilution", "setting": "human neutrophils", "value": "triggered TRAP formation"}, {"measurement": "TRAP formation at 1/5 dilution", "setting": "human neutrophils; listed as Phenol", "value": "strong traps"}]}, {"molecule": "Cc1cccc(O)c1", "note": "[m-cresol]", "values": [{"measurement": "TRAPS in swine tissue", "setting": "porcine skin", "value": "presence of TRAPS"}, {"measurement": "TRAP formation in human neutrophils", "setting": "human neutrophils", "value": "trigger TRAP formation"}, {"measurement": "TRAPs from 120 minutes to 150 minutes", "setting": "human neutrophils; FIGS. 60E-60F, 1/5 dilution (0.6 mg/ml m-cresol)", "value": "significant increase in the presence of TRAPs"}, {"measurement": "number and size of TRAPs from 180 minutes to 240 minutes", "setting": "human neutrophils; FIGS. 60G-60I, 1/5 dilution", "value": "remained relatively stable"}, {"measurement": "TRAP formation at higher dilution than 1/5", "setting": "human neutrophils", "value": "weak to no TRAP formation"}, {"measurement": "TRAP formation at 1/5 dilution", "setting": "human neutrophils", "value": "strong"}]}, {"molecule": "CNc1ccc2oc(C[C@H]3O[C@@]4(CC[C@H]3C)O[C@H]([C@H](C)C(=O)c3ccc[nH]3)[C@H](C)C[C@H]4C)nc2c1C(=O)O", "note": "[A23187, calcimycin]", "values": [{"measurement": "TRAPs in neutrophils, positive control", "setting": "human neutrophils; FIG. 77 d-f, human neutrophils in culture dish", "value": "triggers TRAPs"}]}]}
